Reference: patent US11173151B2, “Substituted triazole derivatives and uses thereof” (BAYER AKTIENGESELLSCHAFT, priority 2017, dated 2021)

Columns and labels:
[1] = target: T1, human V1a receptor (Homo sapiens, UniProt P37288); assay: Cellular in vitro assay for determining vasopressin receptor activity, V1a receptor cell line (CHO, aequorin luminescence); assay type: cell-based; details: for IC50: CHO cell line transfected with human V1a receptor, [Arg]-vasopressin at EC50 concentration, read-out: IC50 hV1a; for ratio IC50 hV2/hV1a: selectivity ratio IC50 hV2 / IC50 hV1a
T1 construct: expressed in transfected cells; host or cells: CHO K1 (ATCC), also stably transfected with a modified aequorin
Summary of the method: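 Cells were plated the day before in medium containing 5 μg/ml coelenterazine and kept at 37° C. Compounds at various concentrations were then added for 10 minutes. Next, [Arg]-vasopressin at EC50 was applied and light output recorded at once, yielding IC50.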

[2] = target: T2, human V2 receptor (Homo sapiens, UniProt P30518); assay: Cellular in vitro assay for determining vasopressin receptor activity, V2 receptor cell line (CHO, CRE-luciferase); assay type: cell-based; details: CHO cell line transfected with human V2 receptor; [Arg8]-vasopressin at EC50 concentration, 3 hours; read-out: IC50 hV2
T2 construct: expressed in transfected cells; host or cells: CHO K1 (ATCC) expressing firefly luciferase under a CRE-responsive promoter
T2 sequence (P30518 whole entry): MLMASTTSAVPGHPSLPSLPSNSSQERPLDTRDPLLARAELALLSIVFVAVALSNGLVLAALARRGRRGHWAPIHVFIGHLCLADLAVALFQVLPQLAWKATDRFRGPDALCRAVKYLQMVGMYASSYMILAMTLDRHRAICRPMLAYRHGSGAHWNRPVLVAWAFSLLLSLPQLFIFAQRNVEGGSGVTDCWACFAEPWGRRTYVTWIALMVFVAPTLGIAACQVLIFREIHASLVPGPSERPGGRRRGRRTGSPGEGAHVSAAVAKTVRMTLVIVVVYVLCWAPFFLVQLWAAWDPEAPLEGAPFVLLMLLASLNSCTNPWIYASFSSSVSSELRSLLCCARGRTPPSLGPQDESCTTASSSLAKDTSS

T1 sequence (P37288 whole entry): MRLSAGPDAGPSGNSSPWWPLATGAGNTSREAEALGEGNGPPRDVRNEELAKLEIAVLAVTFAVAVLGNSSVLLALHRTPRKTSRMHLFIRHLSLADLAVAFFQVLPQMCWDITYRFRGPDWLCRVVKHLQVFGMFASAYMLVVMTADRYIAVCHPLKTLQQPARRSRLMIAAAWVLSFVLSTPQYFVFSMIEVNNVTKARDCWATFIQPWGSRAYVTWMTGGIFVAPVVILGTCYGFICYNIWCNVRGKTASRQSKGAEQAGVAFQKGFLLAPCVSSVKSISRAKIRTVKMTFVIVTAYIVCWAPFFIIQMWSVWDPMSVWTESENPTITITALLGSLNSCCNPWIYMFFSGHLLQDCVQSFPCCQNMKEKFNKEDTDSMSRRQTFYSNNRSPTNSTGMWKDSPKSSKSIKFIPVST

Row | Compound | IC50 [1] [µM] | ratio IC50 hV2/hV1a [1] | IC50 [2] [µM]
1 | CN1CC2CC1CN2C(=O)c1ccccc1-n1cnc(Cn2nc(-c3ccc(Cl)cc3)n(C[C@H](O)C(F)(F)F)c2=O)n1 (stereo partly drawn) [Example 273, 5-(4-Chlorophenyl)-2-[(1-{2-[(5-methyl-2,5-diazabicyclo[2.2.1]hept-2-yl)carbonyl]phenyl}-1H-1,2,4-triazol-3-yl)methyl]-4-[(2S)-3,3,3-trifluoro-2-hydroxypropyl]-2,4-dihydro-3H-1,2,4-triazol-3-one] | 0.013 | 476.9 | 6.2
2 | CN(C(=O)c1ccccc1-n1cnc(Cn2nc(-c3ccc(Cl)cc3)n(C[C@H](O)C(F)(F)F)c2=O)n1)C1CCCC1 [Example 276, 2-[3-({3-(4-Chlorophenyl)-5-oxo-4-[(2S)-3,3,3-trifluoro-2-hydroxypropyl]-4,5-dihydro-1H-1,2,4-triazol-1-yl}methyl)-1H-1,2,4-triazol-1-yl]-N-cyclopentyl-N-methylbenzamide] | 0.0027 | 425.9 | 1.15
3 | CC1(C)CCN(C(=O)c2ccccc2-n2cnc(Cn3nc(-c4ccc(Cl)cc4)n(C[C@H](O)C(F)(F)F)c3=O)n2)CC1 [Example 277, 5-(4-Chlorophenyl)-2-[(1-{2-[(4,4-dimethylpiperidin-1-yl)carbonyl]phenyl}-1H-1,2,4-triazol-3-yl)methyl]-4-[(2S)-3,3,3-trifluoro-2-hydroxypropyl]-2,4-dihydro-3H-1,2,4-triazol-3-one] | 0.0053 | 339.6 | 1.8
4 | O=C(c1ccccc1-n1cnc(Cn2nc(-c3ccc(Cl)cc3)n(C[C@H](O)C(F)(F)F)c2=O)n1)N1CCCCO1 [Example 278, 5-(4-Chlorophenyl)-2-({1-[2-(1,2-oxazinan-2-ylcarbonyl)phenyl]-1H-1,2,4-triazol-3-yl}methyl)-4-[(2S)-3,3,3-trifluoro-2-hydroxypropyl]-2,4-dihydro-3H-1,2,4-triazol-3-one] | 0.0016 | 253.1 | 0.405
5 | O=C1CN(C(=O)c2ccccc2-n2cnc(Cn3nc(-c4ccc(Cl)cc4)n(C[C@H](O)C(F)(F)F)c3=O)n2)CN1 [Example 279, 5-(4-Chlorophenyl)-2-[(1-{2-[(4-oxoimidazolidin-1-yl)carbonyl]phenyl}-1H-1,2,4-triazol-3-yl)methyl]-4-[(2S)-3,3,3-trifluoro-2-hydroxypropyl]-2,4-dihydro-3H-1,2,4-triazol-3-one] | 0.0275 | 98.2 | 2.7
6 | CC1(C)COCCN1C(=O)c1ccccc1-n1cnc(Cn2nc(-c3ccc(Cl)cc3)n(C[C@H](O)C(F)(F)F)c2=O)n1 [Example 281, 5-(4-Chlorophenyl)-2-[(1-{2-[(3,3-dimethylmorpholin-4-yl)carbonyl]phenyl}-1H-1,2,4-triazol-3-yl)methyl]-4-[(2S)-3,3,3-trifluoro-2-hydroxypropyl]-2,4-dihydro-3H-1,2,4-triazol-3-one] | 0.00112 | 2500.0 | 2.8
7 | O=C(c1ccccc1-n1cnc(Cn2nc(-c3ccc(Cl)cc3)n(C[C@H](O)C(F)(F)F)c2=O)n1)N1CCCOCC1 [Example 284, 5-(4-Chlorophenyl)-2-({1-[2-(1,4-oxazepan-4-ylcarbonyl)phenyl]-1H-1,2,4-triazol-3-yl}methyl)-4-[(2S)-3,3,3-trifluoro-2-hydroxypropyl]-2,4-dihydro-3H-1,2,4-triazol-3-one] | 0.002 | 485.0 | 0.97
8 | O=C(c1ccccc1-n1cnc(Cn2nc(-c3ccc(Cl)cc3)n(C[C@H](O)C(F)(F)F)c2=O)n1)N1CCCO1 [Example 285, 5-(4-Chlorophenyl)-2-({1-[2-(1,2-oxazolidin-2-ylcarbonyl)phenyl]-1H-1,2,4-triazol-3-yl}methyl)-4-[(2S)-3,3,3-trifluoro-2-hydroxypropyl]-2,4-dihydro-3H-1,2,4-triazol-3-one] | 0.0019 | 231.6 | 0.44
9 | CN(C)C1CN(C(=O)c2ccccc2-n2cnc(Cn3nc(-c4ccc(Cl)cc4)n(C[C@H](O)C(F)(F)F)c3=O)n2)C1 [Example 286, 5-(4-Chlorophenyl)-2-{[1-(2-{[3-(dimethylamino)azetidin-1-yl]carbonyl}phenyl)-1H-1,2,4-triazol-3-yl]methyl}-4-[(2S)-3,3,3-trifluoro-2-hydroxypropyl]-2,4-dihydro-3H-1,2,4-triazol-3-one] | 0.0145 | 172.4 | 2.5
10 | CC1(C)CN(C(=O)c2ccccc2-n2cnc(Cn3nc(-c4ccc(Cl)cc4)n(C[C@H](O)C(F)(F)F)c3=O)n2)CCO1 [Example 287, 5-(4-Chlorophenyl)-2-[(1-{2-[(2,2-dimethylmorpholin-4-yl)carbonyl]phenyl}-1H-1,2,4-triazol-3-yl)methyl]-4-[(2S)-3,3,3-trifluoro-2-hydroxypropyl]-2,4-dihydro-3H-1,2,4-triazol-3-one] | 0.0057 | 386.0 | 2.2
11 | CN1CCN(C(=O)c2ccccc2-n2cnc(Cn3nc(-c4ccc(Cl)cc4)n(C[C@H](O)C(F)(F)F)c3=O)n2)CC1=O [Example 288, 4-{2-[3-({3-(4-Chlorophenyl)-5-oxo-4-[(2S)-3,3,3-trifluoro-2-hydroxypropyl]-4,5-dihydro-1H-1,2,4-triazol-1-yl}methyl)-1H-1,2,4-triazol-1-yl]benzoyl}-1-methylpiperazin-2-one] | 0.046 | 92.4 | 4.25
12 | CN(CC1CC1)C(=O)c1ccccc1-n1cnc(Cn2nc(-c3ccc(Cl)cc3)n(C[C@H](O)C(F)(F)F)c2=O)n1 [Example 289, 2-[3-({3-(4-Chlorophenyl)-5-oxo-4-[(2S)-3,3,3-trifluoro-2-hydroxypropyl]-4,5-dihydro-1H-1,2,4-triazol-1-yl}methyl)-1H-1,2,4-triazol-1-yl]-N-(cyclopropylmethyl)-N-methylbenzamide] | 0.00083 | 536.1 | 0.445
13 | O=C(c1ccccc1-n1cnc(Cn2nc(-c3ccc(Cl)cc3)n(C[C@H](O)C(F)(F)F)c2=O)n1)N1CC(O)C1 [Example 290, 5-(4-Chlorophenyl)-2-[(1-{2-[(3-hydroxyazetidin-1-yl)carbonyl]phenyl}-1H-1,2,4-triazol-3-yl)methyl]-4-[(2S)-3,3,3-trifluoro-2-hydroxypropyl]-2,4-dihydro-3H-1,2,4-triazol-3-one] | 0.0091 | 92.9 | 0.845
14 | O=C(c1ccccc1-n1cnc(Cn2nc(-c3ccc(Cl)cc3)n(C[C@H](O)C(F)(F)F)c2=O)n1)N1CC[C@@H](O)C1 [Example 291, 5-(4-Chlorophenyl)-2-{[1-(2-{[(3R)-3-hydroxypyrrolidin-1-yl]carbonyl}phenyl)-1H-1,2,4-triazol-3-yl]methyl}-4-[(2S)-3,3,3-trifluoro-2-hydroxypropyl]-2,4-dihydro-3H-1,2,4-triazol-3-one] | 0.0066 | 174.2 | 1.15
15 | CC1C=CC(C)N1C(=O)c1ccccc1-n1cnc(Cn2nc(-c3ccc(Cl)cc3)n(C[C@H](O)C(F)(F)F)c2=O)n1 (stereo partly drawn) [Example 293, 5-(4-Chlorophenyl)-2-[(1-{2-[(2,5-dimethyl-2,5-dihydro-1H-pyrrol-1-yl)carbonyl]phenyl}-1H-1,2,4-triazol-3-yl)methyl]-4-[(2S)-3,3,3-trifluoro-2-hydroxypropyl]-2,4-dihydro-3H-1,2,4-triazol-3-one] | 0.0047 | 178.7 | 0.84
16 | C=CCN(C)C(=O)c1ccccc1-n1cnc(Cn2nc(-c3ccc(Cl)cc3)n(C[C@H](O)C(F)(F)F)c2=O)n1 [Example 294, 2-[3-({3-(4-Chlorophenyl)-5-oxo-4-[(2S)-3,3,3-trifluoro-2-hydroxypropyl]-4,5-dihydro-1H-1,2,4-triazol-1-yl}methyl)-1H-1,2,4-triazol-1-yl]-N-methyl-N-(prop-2-en-1-yl)benzamide] | 0.0021 | 735.7 | 1.54
17 | CCN(C)C(=O)c1ccccc1-n1cnc(Cn2nc(-c3ccc(Cl)cc3)n(C[C@H](O)C(F)(F)F)c2=O)n1 [Example 295, 2-[3-({3-(4-Chlorophenyl)-5-oxo-4-[(2S)-3,3,3-trifluoro-2-hydroxypropyl]-4,5-dihydro-1H-1,2,4-triazol-1-yl}methyl)-1H-1,2,4-triazol-1-yl]-N-ethyl-N-methylbenzamide] | 0.0025 | 30.8 | 0.077
18 | Cc1cccnc1NC(=O)c1ccccc1-n1cnc(Cn2nc(-c3ccc(Cl)cc3)n(C[C@H](O)C(F)(F)F)c2=O)n1 [Example 296, 2-[3-({3-(4-Chlorophenyl)-5-oxo-4-[(2S)-3,3,3-trifluoro-2-hydroxypropyl]-4,5-dihydro-1H-1,2,4-triazol-1-yl}methyl)-1H-1,2,4-triazol-1-yl]-N-(3-methylpyridin-2-yl)benzamide] | 0.00395 | 126.6 | 0.5
19 | O=C(NCc1ccccc1)c1ccccc1-n1cnc(Cn2nc(-c3ccc(Cl)cc3)n(C[C@H](O)C(F)(F)F)c2=O)n1 [Example 299, N-Benzyl-2-[3-({3-(4-chlorophenyl)-5-oxo-4-[(2S)-3,3,3-trifluoro-2-hydroxypropyl]-4,5-dihydro-1H-1,2,4-triazol-1-yl}methyl)-1H-1,2,4-triazol-1-yl]benzamide] | 0.0044 | 60.2 | 0.265
20 | O=C(Nc1ccncc1)c1ccccc1-n1cnc(Cn2nc(-c3ccc(Cl)cc3)n(C[C@H](O)C(F)(F)F)c2=O)n1 [Example 300, 2-[3-({3-(4-Chlorophenyl)-5-oxo-4-[(2S)-3,3,3-trifluoro-2-hydroxypropyl]-4,5-dihydro-1H-1,2,4-triazol-1-yl}methyl)-1H-1,2,4-triazol-1-yl]-N-(pyridin-4-yl)benzamide] | 0.00102 | 656.9 | 0.67
